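Following 48 hours of exposure in 96-well plates, responses at five concentrations were used to interpolate endpoints linearly. The concentration for 50% growth inhibition is given as GI50.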 Activity calls are given as the source filed them. Cut-off read from the data, not from the text of the source: active = GI50 up to about 1.1 µM and inactive = higher.
What was measured:
Assay in all cases: DTP human tumour cell line panel, 48 h
M14 = tested on: M14
RXF 393 = tested on: RXF 393
K562 = tested on: K562
PC-3 = tested on: PC-3
SK-MEL-2 = tested on: SK-MEL-2
NCI/ADR-RES = tested on: NCI/ADR-RES
SNB-75 = tested on: SNB-75
SNB-19 = tested on: SNB-19
HT-29 = tested on: HT-29
SK-MEL-28 = tested on: SK-MEL-28
LOX IMVI = tested on: LOX IMVI
OVCAR-3 = tested on: OVCAR-3
SK-MEL-5 = tested on: SK-MEL-5
U-251 = tested on: U-251
UO-31 = tested on: UO-31
SF-539 = tested on: SF-539
NCI-H460 = tested on: NCI-H460
UACC-62 = tested on: UACC-62
COLO 205 = tested on: COLO 205
Hs-578T = tested on: Hs-578T

SMILES	GI50 (M14)	GI50 (RXF 393)	GI50 (K562)	GI50 (PC-3)	GI50 (SK-MEL-2)	GI50 (NCI/ADR-RES)	GI50 (SNB-75)	GI50 (SNB-19)	GI50 (HT-29)	GI50 (SK-MEL-28)	GI50 (LOX IMVI)	GI50 (OVCAR-3)	GI50 (SK-MEL-5)	GI50 (U-251)	GI50 (UO-31)	GI50 (SF-539)	GI50 (NCI-H460)	GI50 (UACC-62)	GI50 (COLO 205)	GI50 (Hs-578T)
Cc1c(C(=O)OCc2ccccc2)[n+]([O-])c2ccccc2[n+]1[O-]	32.1 µM (inactive)	23.7 µM (inactive)	37.6 µM (inactive)	23.1 µM (inactive)	32.8 µM (inactive)	26.2 µM (inactive)	15.6 µM (inactive)	57.3 µM (inactive)	60.8 µM (inactive)	66.1 µM (inactive)	20 µM (inactive)	30.3 µM (inactive)	22 µM (inactive)	40.8 µM (inactive)	27.8 µM (inactive)	42.1 µM (inactive)	25.4 µM (inactive)	25.6 µM (inactive)	18.5 µM (inactive)	30.1 µM (inactive)
Cc1ccc(N)cc1.O=S(=O)(O)/C(=C\c1ccccc1)c1ccccc1	> 100 µM (inactive)	> 100 µM (inactive)	> 100 µM (inactive)	> 100 µM (inactive)	> 100 µM (inactive)	> 100 µM (inactive)	> 100 µM (inactive)	> 100 µM (inactive)	> 100 µM (inactive)	> 100 µM (inactive)	> 100 µM (inactive)	> 100 µM (inactive)	93.3 µM (inactive)	> 100 µM (inactive)	70.6 µM (inactive)	> 100 µM (inactive)	> 100 µM (inactive)	44 µM (inactive)	> 100 µM (inactive)	> 100 µM (inactive)
Cc1ccc(C(=N)c2ccccc2Cc2cccc3ccccc23)c2ccccc12	32.3 µM (inactive)	> 100 µM (inactive)	80 µM (inactive)	> 100 µM (inactive)	> 100 µM (inactive)	> 100 µM (inactive)	> 100 µM (inactive)	> 100 µM (inactive)	11.7 µM (inactive)	> 100 µM (inactive)	80.2 µM (inactive)	79.1 µM (inactive)	31.9 µM (inactive)	> 100 µM (inactive)	44.8 µM (inactive)	> 100 µM (inactive)	41.5 µM (inactive)	99.1 µM (inactive)	22.1 µM (inactive)	> 100 µM (inactive)
O=S(=O)(c1ccccc1)C1CN(Cc2ccccc2)CCN(Cc2ccccc2)C1	24.2 µM (inactive)	10.4 µM (inactive)	5.97 µM (inactive)	8.71 µM (inactive)	36.8 µM (inactive)	17.9 µM (inactive)	61.5 µM (inactive)	> 60.4 µM (inactive)	24.5 µM (inactive)	> 71 µM (inactive)	6.25 µM (inactive)	26.6 µM (inactive)	18.6 µM (inactive)	33 µM (inactive)	19.3 µM (inactive)	77.6 µM (inactive)	26.7 µM (inactive)	11.4 µM (inactive)	30 µM (inactive)	37.2 µM (inactive)
CN(CCCNC(=O)c1nn(-c2ccc(Cl)cc2Cl)c2c1Cc1ccccc1-2)CCCNC(=O)c1nn(-c2ccc(Cl)cc2Cl)c2c1Cc1ccccc1-2	1.8 µM (inactive)	1.77 µM (inactive)	0.944 µM (active)	1.73 µM (inactive)	1.92 µM (inactive)	1.87 µM (inactive)	1.55 µM (inactive)	1.77 µM (inactive)	1.73 µM (inactive)	1.69 µM (inactive)	1.67 µM (inactive)	1.73 µM (inactive)	1.68 µM (inactive)	1.79 µM (inactive)	1.82 µM (inactive)	1.19 µM (inactive)	1.65 µM (inactive)	1.57 µM (inactive)	1.83 µM (inactive)	2.74 µM (inactive)
O=C1C(Cl)=C(N2CCC[C@@H]2CO)C(=O)c2c(O)ccc(O)c21	1.67 µM (inactive)	1.6 µM (inactive)	0.347 µM (active)	1.91 µM (inactive)	1.57 µM (inactive)	2.41 µM (inactive)	1.69 µM (inactive)	1.66 µM (inactive)	2.15 µM (inactive)	1.82 µM (inactive)	1.47 µM (inactive)	1.67 µM (inactive)	1.01 µM (active)	1.83 µM (inactive)	1.82 µM (inactive)	1.92 µM (inactive)	1.73 µM (inactive)	1.36 µM (inactive)	1.55 µM (inactive)	2.06 µM (inactive)
CC12CP(=O)(O)CC1C2(Cl)Cl (stereo not given)	> 100 µM (inactive)	> 100 µM (inactive)	> 100 µM (inactive)	> 100 µM (inactive)	> 100 µM (inactive)	> 100 µM (inactive)	> 100 µM (inactive)	> 100 µM (inactive)	> 100 µM (inactive)	> 100 µM (inactive)	> 100 µM (inactive)	> 100 µM (inactive)	> 100 µM (inactive)	> 100 µM (inactive)	50.6 µM (inactive)	> 100 µM (inactive)	> 100 µM (inactive)	> 100 µM (inactive)	> 100 µM (inactive)	> 100 µM (inactive)
CSc1nc(C)c2c(n1)N(c1ccc(Cl)cc1)CC2	> 100 µM (inactive)	> 100 µM (inactive)	88.3 µM (inactive)	> 100 µM (inactive)	> 100 µM (inactive)	> 100 µM (inactive)	0.0946 µM (active)	> 100 µM (inactive)	> 100 µM (inactive)	> 100 µM (inactive)	> 100 µM (inactive)	> 100 µM (inactive)	> 100 µM (inactive)	> 100 µM (inactive)	0.342 µM (active)	70.8 µM (inactive)	> 100 µM (inactive)	> 100 µM (inactive)	> 100 µM (inactive)	> 100 µM (inactive)
COc1ccc(OC)c(CSc2ccc(OC)c(OC)c2)c1	> 100 µM (inactive)	> 100 µM (inactive)	74.8 µM (inactive)	> 79.8 µM (inactive)	49.9 µM (inactive)	> 70.8 µM (inactive)	57.1 µM (inactive)	> 100 µM (inactive)	> 73.3 µM (inactive)	> 100 µM (inactive)	> 64.6 µM (inactive)	> 63.5 µM (inactive)	45.4 µM (inactive)	> 94.2 µM (inactive)	55.3 µM (inactive)	> 100 µM (inactive)	> 100 µM (inactive)	> 68.5 µM (inactive)	> 100 µM (inactive)	> 100 µM (inactive)
CC1CCC(=O)C(C(=O)CC2CC(=O)NC(=O)C2)C1 (stereo not given)	> 100 µM (inactive)	> 100 µM (inactive)	> 100 µM (inactive)	> 100 µM (inactive)	> 100 µM (inactive)	> 100 µM (inactive)	> 100 µM (inactive)	> 100 µM (inactive)	> 100 µM (inactive)	> 100 µM (inactive)	> 100 µM (inactive)	> 100 µM (inactive)	> 100 µM (inactive)	> 100 µM (inactive)	> 100 µM (inactive)	> 100 µM (inactive)	> 100 µM (inactive)	> 100 µM (inactive)	> 100 µM (inactive)	> 100 µM (inactive)
COc1c(OC(C)C)c(OC(C)C)c2oc(=O)n3c2c1C(c1ccccc1-n1c(C)ccc1C)C=C3 (stereo not given)	29.2 µM (inactive)	22 µM (inactive)	> 100 µM (inactive)	14.2 µM (inactive)	95.9 µM (inactive)	33.6 µM (inactive)	41.8 µM (inactive)	> 100 µM (inactive)	12.6 µM (inactive)	37.8 µM (inactive)	21.5 µM (inactive)	> 100 µM (inactive)	98.4 µM (inactive)	> 100 µM (inactive)	36.1 µM (inactive)	67.5 µM (inactive)	41.9 µM (inactive)	44.7 µM (inactive)	> 100 µM (inactive)	18.5 µM (inactive)
COC(=O)[C@]1(Cc2ccc3ccccc3c2)CCCCCCN1C(=O)c1ccccc1	> 36.1 µM (inactive)	> 32.2 µM (inactive)	> 22 µM (inactive)	> 22.4 µM (inactive)	12.6 µM (inactive)	> 34 µM (inactive)	17.5 µM (inactive)	> 44.6 µM (inactive)	> 28.2 µM (inactive)	> 37.2 µM (inactive)	16.7 µM (inactive)	> 24.9 µM (inactive)	> 100 µM (inactive)	> 26.7 µM (inactive)	> 21 µM (inactive)	> 39.6 µM (inactive)	> 34.4 µM (inactive)	> 35.6 µM (inactive)	11.4 µM (inactive)	18.7 µM (inactive)
COC(=O)NC(Nc1ccc(Cl)cc1Cl)(C(F)(F)F)C(F)(F)F	52.4 µM (inactive)	> 100 µM (inactive)	2.85 µM (inactive)	15.1 µM (inactive)	> 100 µM (inactive)	86.5 µM (inactive)	> 100 µM (inactive)	> 100 µM (inactive)	> 100 µM (inactive)	> 100 µM (inactive)	40.6 µM (inactive)	79.6 µM (inactive)	26.7 µM (inactive)	54.1 µM (inactive)	18 µM (inactive)	49 µM (inactive)	30 µM (inactive)	5.2 µM (inactive)	28.2 µM (inactive)	> 100 µM (inactive)
Nc1nc(=O)c2cc(NCc3ccc(C(=O)NC(CCC(=O)O)C(=O)O)cc3)ccc2[nH]1 (stereo not given)	20.8 µM (inactive)	> 100 µM (inactive)	> 100 µM (inactive)	> 100 µM (inactive)	> 100 µM (inactive)	> 100 µM (inactive)	> 100 µM (inactive)	> 100 µM (inactive)	> 100 µM (inactive)	> 100 µM (inactive)	14.1 µM (inactive)	> 100 µM (inactive)	> 100 µM (inactive)	> 100 µM (inactive)	15.1 µM (inactive)	6.65 µM (inactive)	50 µM (inactive)	45.9 µM (inactive)	> 100 µM (inactive)	> 100 µM (inactive)
